Test results published in PMC4692446, “Compound K Production from Red Ginseng Extract by β-Glycosidase from Sulfolobus solfataricus Supplemented with α-L-Arabinofuranosidase from Caldicellulosiruptor saccharolyticus” (PLoS ONE, 2015).

Target: T1, SS-bgly (β-glycosidase from Sulfolobus solfataricus) (Saccharolobus solfataricus, UniProt P22498)
T1 construct: gene lacS; full-length gene from genomic DNA in pET-24a, NdeI/BamHI, own stop codon, no tag; E. coli ER2566; heat-treated soluble enzyme (75°C)
T1 sequence (P22498 1-489): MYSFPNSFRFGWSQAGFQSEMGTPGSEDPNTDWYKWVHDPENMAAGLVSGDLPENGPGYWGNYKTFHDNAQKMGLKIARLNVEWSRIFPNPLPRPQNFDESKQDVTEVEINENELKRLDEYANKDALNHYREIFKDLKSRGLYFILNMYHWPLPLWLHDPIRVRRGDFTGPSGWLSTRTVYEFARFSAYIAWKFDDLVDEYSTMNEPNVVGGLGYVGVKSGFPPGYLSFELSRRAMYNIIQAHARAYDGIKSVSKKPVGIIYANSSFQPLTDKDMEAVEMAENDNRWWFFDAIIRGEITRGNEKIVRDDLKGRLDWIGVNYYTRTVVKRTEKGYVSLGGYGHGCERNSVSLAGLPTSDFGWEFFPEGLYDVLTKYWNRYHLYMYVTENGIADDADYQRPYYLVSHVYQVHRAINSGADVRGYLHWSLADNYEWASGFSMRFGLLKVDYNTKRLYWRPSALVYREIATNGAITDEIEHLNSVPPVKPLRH
Test: TLC of reaction products
Type: biochemical
Conditions: 80°C, pH 6.0 citrate/phosphate; SS-bgly alone; product C-Mc

## CC(C)=CCC[C@](C)(O[C@@H]1O[C@H](CO[C@@H]2O[C@@H](CO)[C@H](O)[C@H]2O)[C@@H](O)[C@H](O)[C@H]1O)[C@H]1CC[C@]2(C)[C@@H]1[C@H](O)C[C@@H]1[C@@]3(C)CC[C@H](O[C@@H]4O[C@H](CO)[C@@H](O)[C@H](O)[C@H]4O[C@@H]4O[C@H](CO)[C@@H](O)[C@H](O)[C@H]4O)C(C)(C)[C@@H]3CC[C@]12C [Rc, ginsenoside Rc]
  TLC of reaction products: whereas only C-Mc was obtained by SS-bgly alone
